Data published in patent US20090170846A1, “INHIBITORS OF THE HIV INTEGRASE ENZYME” (Pfizer Inc, priority 2005, published 2009).
Where two headings read alike, the source gives them in different places.

Tests used:
[1] = biological target: T1, Full-length wild type HIV-1 integrase (SF1) (Human immunodeficiency virus type 1 group M subtype B, UniProt P04585); assay: Integrase strand-transfer scintillation proximity assay; format: biochemical
T1 construct: made in house; host or cells: E. coli BL21 (DE3)
Excerpt: Integrase Strand-Transfer Scintillation Proximity Assay
Oligonucleotides: Oligonucleotide #1-5′-(biotin)[…]-3′ (SEQ ID NO: 1) and oligonucleotide #2-5′-[…]-3′ (SEQ ID NO: 2), were synthesized by TriLink BioTechnologies, Inc. (San Diego, Calif.). The annealed product represents preprocessed viral ds-DNA derived from the LTR U5 sequence of the viral genome. A ds-DNA control to test for non-specific interactions was made using a 3′ di-deoxy derivative of oligonucleotide #1 annealed to oligonucleotide #2. The CA overhang at the 5′ end of the non-biotinylated strand of the ds-DNA was created artificially by using a complimentary DNA oligonucleotide shortened by 2 base pairs. This configuration eliminates the requisite 3′ processing step of the integrase enzyme prior to the strand-transfer mechanism.
Host ds-DNA was prepared as an unlabeled and [^3H]-thymidine labeled product from annealed oligonucleotide #3-5-[…]-3′ (SEQ ID NO: 3), and oligonucleotide #4-1-5′-[…]-3′ (SEQ ID NO: 4), both synthesized by TriLink BioTechnologies, Inc. (San Diego, Calif.). The annealed product had overhanging 3′ ends of poly(dA). Host DNA was custom radiolabeled by PerkinElmer Life Sciences Inc. (Boston, Mass.) using an enzymatic method with a 12/1 ratio of [methyl-^3H]dTTP/cold ds-DNA to yield 5′-blunt end ds-DNA with a specific activity of >900 Ci/mmol. The radiolabeled product was purified using a NENSORB cartridge and stored in stabilized aqueous solution (PerkinElmer). The final radiolabeled product had six [^3H]-thymidine nucleotides at both 5′ ends of the host ds-DNA.
Reagents: Streptavidin-coated polyvinyltoluene (PVT) SPA beads were purchased from Amersham Biosciences (Piscataway, N.J.). Cesium chloride was purchased from Shelton Scientific, Inc. (Shelton, Conn.). White, polystyrene, flat-bottom, non-binding surface, 96-well plates were purchased from Corning. All other buffer components were purchased from Sigma (St. Louis, Mo.) unless otherwise indicated.
Enzyme Construction Full-length wild type HIV-1 integrase (SF1) sequence (amino acids 1-289) was constructed in a pET24a vector (Novagen, Madison, Wis.). The construct was confirmed through DNA sequencing.
Enzyme Purification Full length wild-type HIV Integrase was expressed in E. coli BL21 (DE3) cells and induced with 1 mM isopropyl-1 thio-β-D-galactopyranoside (IPTG) when cells reached an optical density between 0.8-1.0 at 600 nm. Cells were lysed by microfluidation in 50 mM HEPES pH 7.0, 75 mM NaCl, 5 mM DTT, 1 mM 4-(2-Aminoethyl)benzenesulfonylfluoride HCl (AEBSF). Lysate was then centrifuged 20 minutes at 11 k rpm in GSA rotor in Sorvall RC-5B at 4° C. Supernant was discarded and pellet resuspended in 50 mM HEPES pH 7.0, 750 mM NaCl, 5 mM DTT, 1 mM AEBSF and homogenized in a 40 mL Dounce homogenizer for 20 minutes on ice. Homogenate was then centrifuged 20 minutes at 11 k rpm in SS34 rotor in Sorvall RC-5B at 4° C. Supernant was discarded and pellet resuspended in 50 mM HEPES pH 7.0, 750 mM NaCl, 25 mM CHAPS, 5 mM DTT, 1 mM AEBSF. Preparation was then centrifuged 20 minutes at 11 k rpm in SS34 rotor in Sorvall RC-5B at 4° C.
Supernant was then diluted 1:1 with 50 mM HEPES pH 7.0, 25 mM CHAPS, 1 mM DTT, 1 mM AEBSF and loaded onto a Q-Sepharose column pre-equilibrated with 50 mM HEPES, pH 7.0, 375 mM NaCl, 25 mM CHAPS, 1 mM DTT, 1 mM AEBSF. The flow through peak was collected and NaCl diluted to 0.1 M with 50 mM HEPES pH 7.0, 25 mM CHAPS, 1 mM DTT, 0.5 mM AEBSF and loaded onto a SP-Sepharose column pre-equilibrated with 50 mM HEPES pH 7.0, 100 mM NaCl, 25 mM CHAPS, 1 mM DTT, 0.5 mM AEBSF. After washing the column with the equilibration buffer, a 100 to 400 mM NaCl gradient was run. The eluted integrase was concentrated and run on a S-300 gel diffusion column using 50 mM HEPES pH 7.0, 500 mM NaCl, 25 mM CHAPS, 1 mM DTT, 0.5 mM AEBSF. The peak from this column was concentrated to 0.76 mg/mL and stored at −70° C. and later used for strand transfer assays. […]

[2] = system: RF strain of HIV-1 in CEM-SS cells; assay: HIV-1 cell protection assay (XTT dye reduction); format: cell-based
Experimental: HIV-1 Cell Protection Assay
The antiviral activities of potential modulator compounds (test compounds) were determined in HIV-1 cell protection assays using the RF strain of HIV-1, CEM-SS cells, and the XTT dye reduction method (Weislow, O, S. et al., J. Natl. Cancer Inst 81: 577-586 (1989)). Subject cells were infected with HIV-1 RF virus at an moi of to affect about a 90% kill (for example, an moi in the range of from about 0.025 to about 0.819) or mock infected with medium only and added at 2×10^4 cells per well, with the addition of approximately 200 μL of medium, into 96 well plates containing half-log dilutions of test compounds. Six days later, 50 μl of XTT solution (1 mg/ml XTT tetrazolium and 20 nM phenazine methosulfate) were added to the wells and the plates were reincubated for four hours. Viability, as determined by the amount of XTT formazan produced, was quantified spectrophotometrically by absorbance at 450 nm.
Data from CPE assays were expressed as the percent of formazan produced in compound-treated cells compared to formazan produced in wells of uninfected, compound-free cells. The fifty percent effective concentration (EC50) was calculated as the concentration of compound that affected an increase in the percentage of formazan production in infected, compound-treated cells to 50% of that produced by uninfected, compound-free cells. The 50% cytotoxicity concentration (CC50) was calculated as the concentration of compound that decreased the percentage of formazan produced in uninfected, compound-treated cells to 50% of that produced in uninfected, compound-free cells. The therapeutic index was calculated by dividing the cytotoxicity (CC50) by the antiviral activity (EC50).

[3] = integrase strand-transfer SPA, read-out: IC50
[4] = Human immunodeficiency virus 1, 144 h, HIV-1 RF, CEM-SS cells, XTT, six days, read-out: EC50
[5] = Human immunodeficiency virus 1, CEM-SS, 144 h

Structure (SMILES) | IC50 [1, 3] | EC50 [2, 4] | IC50 [1] | EC50 [2, 5]
CC(=O)Nc1cn(Cc2ccc(F)cc2)c2cnc(C(=O)NO)cc12 [Example 1, 3-(acetylamino)-1-(4-fluorobenzyl)-N-hydroxy-1H-pyrrolo[2,3-c]pyridine-5-carboxamide] | 130 nM | 11 nM | – | –
CC(=O)Nc1cn(Cc2ccc(F)cc2)c2cnc(C(=O)N(C)O)cc12 [Example 2, 3-(acetylamino)-1-(4-fluorobenzyl)-N-hydroxy-N-methyl-1H-pyrrolo[2,3-c]pyridine-5-carboxamide] | – | 20 nM | – | –
O=C(NO)c1cc2c(NS(=O)(=O)c3ccccc3)cn(Cc3ccc(F)cc3)c2cn1 [Example 3, 1-(4-fluorobenzyl)-N-hydroxy-3-[(phenylsulfonyl)amino]-1H-pyrrolo[2,3-c]pyridine-5-carboxamide] | – | 21 nM | 40.5 nM | –
CN(O)C(=O)c1cc2c(NS(=O)(=O)c3ccccc3)cn(Cc3ccc(F)cc3)c2cn1 [Example 4, 1-(4-fluorobenzyl)-N-hydroxy-N-methyl-3-[(phenylsulfonyl)amino]-1H-pyrrolo[2,3-c]pyridine-5-carboxamide] | 360 nM | 42 nM | – | –
CS(=O)(=O)Nc1cn(Cc2ccc(F)cc2)c2cnc(C(=O)NO)cc12 [Example 5, 1-(4-fluorobenzyl)-N-hydroxy-3-[(methylsulfonyl)amino]-1H-pyrrolo[2,3-c]pyridine-5-carboxamide] | 56 nM | 5.2 nM | – | –
CN(O)C(=O)c1cc2c(NS(C)(=O)=O)cn(Cc3ccc(F)cc3)c2cn1 [Example 6, 1-(4-fluorobenzyl)-N-hydroxy-N-methyl-3-[(methylsulfonyl)amino]-1H-pyrrolo[2,3-c]pyridine-5-carboxamide] | 270 nM | 30 nM | – | –
CONC(=O)c1cc2c(C(=O)NCCN3CCOCC3)cn(Cc3ccc(F)cc3)c2cn1 [Example 7, 1-(4-fluorobenzyl)-N~5~- methoxy-N~3~-(2-morpholin-4-ylethyl)-1H-pyrrolo[2,3-c]pyridine-3,5-dicarboxamide] | 550 nM | – | – | 62 nM
CCN1CCCC1CNC(=O)c1cn(Cc2ccc(F)cc2)c2cnc(C(=O)NOC)cc12 (stereo not shown) [Example 8, N3~-[(1-ethylpyrrolidin-2-yl)methyl]-1-(4-fluorobenzyl)-N~5~- methoxy-1H-pyrrolo[2,3-c]pyridine-3,5-dicarboxamide] | 1400 nM | – | – | 700 nM
CONC(=O)c1cc2c(C(=O)NCCCN3CCCC3=O)cn(Cc3ccc(F)cc3)c2cn1 [Example 9, 1-(4-fluorobenzyl)-N~5~- methoxy-N~3~-[3-(2-oxopyrrolidin-1-yl)propyl]-1H-pyrrolo[2,3-c]pyridine-3,5-dicarboxamide] | 267 nM | – | – | 42 nM
CONC(=O)c1cc2c(C(=O)N3CCC[C@H]3CO)cn(Cc3ccc(F)cc3)c2cn1 [Example 10, 1-(4-fluorobenzyl)-3-{[(2S)-2-(hydroxymethyl)pyrrolidin-1-yl]carbonyl}-N-methoxy-1H-pyrrolo[2,3-c]pyridine-5-carboxamide] | 1140 nM | – | – | 40 nM
CCN(CC)S(=O)(=O)c1cn(Cc2ccc(F)cc2)c2cnc(C(=O)NOC)cc12 [Example 49, 3-[(diethylamino)sulfonyl]-1-(4-fluorobenzyl)-N-methoxy-1H-pyrrolo[2,3-c]pyridine-5-carboxamide] | – | 17 nM | – | –
CN(O)C(=O)c1cc2c(S(=O)(=O)NCCCO)cn(Cc3ccc(F)cc3)c2cn1 [Example 50, 1-(4-fluorobenzyl)-N-hydroxy-3-{[(3-hydroxypropyl)amino]sulfonyl}-N-methyl-1H-pyrrolo[2,3-c]pyridine-5-carboxamide] | – | 460 nM | – | –
CONC(=O)c1cc2c(S(=O)(=O)NCCCO)cn(Cc3ccc(F)cc3)c2cn1 [Example 51, 1-(4-fluorobenzyl)-3-{[(3-hydroxypropyl)amino]sulfonyl}-N-methoxy-1H-pyrrolo[2,3-c]pyridine-5-carboxamide] | – | 110 nM | – | –
CONC(=O)c1cc2c(S(=O)(=O)Nc3cccnc3OC)cn(Cc3ccc(F)cc3)c2cn1 [Example 52, 1-(4-fluorobenzyl)-N-methoxy-3-{[(2-methoxypyridin-3-yl)amino]sulfonyl}-1H-pyrrolo[2,3-c]pyridine-5-carboxamide] | – | 52 nM | – | –
COc1ncccc1NS(=O)(=O)c1cn(Cc2ccc(F)cc2)c2cnc(C(=O)N(C)O)cc12 [Example 53, 1-(4-fluorobenzyl)-N-hydroxy-3-{((2-methoxypyridin-3-yl)amino]sulfonyl}-N-methyl-1H-pyrrolo[2,3-c]pyridine-5-carboxamide] | – | 140 nM | – | –
CONC(=O)c1cc2c(S(=O)(=O)N(C)CC3COCCO3)cn(Cc3ccc(F)cc3)c2cn1 (stereo not shown) [Example 54, 3-{[(1,4-dioxan-2-ylmethyl)(methyl)amino]sulfonyl}-1-(4-fluorobenzyl)-N-methoxy-1H-pyrrolo[2,3-c]pyridine-5-carboxamide] | – | 48 nM | – | –
CONC(=O)c1cc2c(S(=O)(=O)N3CCOCC3)cn(Cc3ccc(F)cc3)c2cn1 [Example 55, 1-(4-fluorobenzyl)-N-methoxy-3-(morpholin-4-ylsulfonyl)-1H-pyrrolo[2,3-c]pyridine-5-carboxamide] | – | 25 nM | – | –
CN(O)C(=O)c1cc2c(S(=O)(=O)N(C)CC3COCCO3)cn(Cc3ccc(F)cc3)c2cn1 (stereo not shown) [Example 56, 3-{[(1,4-dioxan-2-ylmethyl)(methyl)amino]sulfonyl}-1-(4-fluorobenzyl)-N-hydroxy-N-methyl-1H-pyrrolo[2,3-c]pyridine-5-carboxamide] | – | 400 nM | – | –
CN(O)C(=O)c1cc2c(S(=O)(=O)N3CCOCC3)cn(Cc3ccc(F)cc3)c2cn1 [Example 57, 1-(4-fluorobenzyl)-N-hydroxy-N-methyl-3-(morpholin-4-ylsulfonyl)-1H-pyrrolo[2,3-c]pyridine-5-carboxamide] | – | 480 nM | – | –
